Test results reported in US20210169892A1, “MODULATORS OF THE INTEGRATED STRESS PATHWAY” (Calico Life Sciences LLC, priority 2017, published 2021).
pEC50: −log10 of the molar value.

The molecules below were run on HEK293T cells carrying the ATF4 luciferase reporter (assay: ATF4-Luc assay (in vitro model of vanishing white matter disease)). Settings: Homo sapiens, HEK-293T; HEK293T cells with ATF4 luciferase reporter, 1 μg/mL tunicamycin, 7 hours, One Glo luminescence.
Format: cell-based
How it was run: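 Reporter cells were stably generated by retroviral transduction and puromycin selection, then seeded at 30,000 cells/well. Next day, cells received 1 μg/mL tunicamycin with 200 nM test compound for 7 h, and luciferase luminescence was read with a one-step reagent. Values reported as EC50.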
`O=C(COc1ccc(Cl)c(F)c1)NC12CCC(NC(=O)[C@H]3COc4cc(Cl)ccc4O3)(CC1)C[C@@H]2O` [Compound 115, (2R)-6-chloro-N-{(3S)-4-[2-(4-chloro-3-fluorophenoxy)acetamido]-3-hydroxybicyclo[2.2.2]octan-1-yl}-2,3-dihydro-1,4-benzodioxine-2-carboxamide] was tested, and the pEC50 was > 8.00. Molecule `O=C(COc1ccc(Cl)c(F)c1)NC12CCC(NC(=O)C3COc4ccccc4O3)(CC1)[C@H](O)C2` (stereo partly drawn) [Compound 123, N-{(2R)-4-[2-(4-chloro-3-fluorophenoxy)acetamido]-2-hydroxybicyclo[2.2.2]octan-1-yl}-2,3-dihydro-1,4-benzodioxine-2-carboxamide] has a pEC50 of 6.30 to 6.60. In the case of `O=C(COc1ccc(Cl)c(F)c1)NC12CC(NC(=O)[C@H]3COc4cc(Cl)ccc4O3)(C1)C2` [Compound 119, (2R)-6-chloro-N-{3-[2-(4-chloro-3-fluorophenoxy)acetamido]bicyclo[1.1.1]pentan-1-yl}-2,3-dihydro-1,4-benzodioxine-2-carboxamide], the pEC50 was > 8.00. With `O=C(COc1ccc(Cl)c(F)c1)NC12CC(NC(=O)C3CNc4cc(Cl)ccc4O3)(C1)C2` (stereo not drawn) [Compound 113, 6-chloro-N-{3-[2-(4-chloro-3-fluorophenoxy)acetamido]bicyclo[1.1.1]pentan-1-yl}-3,4-dihydro-2H-1,4-benzoxazine-2-carboxamide] the pEC50 was > 8.00. For `COCC(=O)N1CC(C(=O)NC23CC(NC(=O)COc4ccc(Cl)c(F)c4)(C2)C3)Oc2ccc(Cl)cc21` (stereo not drawn) [Compound 158, 6-chloro-N-{3-[2-(4-chloro-3-fluorophenoxy)acetamido]bicyclo[1.1.1]pentan-1-yl}-4-(methoxyacetyl)-3,4-dihydro-2H-1,4-benzoxazine-2-carboxamide], the pEC50 was 7.30 to 8.00. In the case of `CSN1CC(C(=O)NC23CC(NC(=O)COc4ccc(Cl)c(F)c4)(C2)C3)Oc2ccc(Cl)cc21` (stereo not drawn) [Compound 172, 6-chloro-N-{3-[2-(4-chloro-3-fluorophenoxy)acetamido]bicyclo[1.1.1]pentan-1-yl}-4-(methylsulfanyl)-3,4-dihydro-2H-1,4-benzoxazine-2-carboxamide], the pEC50 was > 8.00.
